For assay [1], the target named is Histamine H2 receptor (Homo sapiens, UniProt P25021). Type of assay: functional, cell-based.
Assay [2] has as its target T1, 5-hydroxytryptamine receptor 1A (Homo sapiens, UniProt P08908).
T1 sequence (P08908 whole entry): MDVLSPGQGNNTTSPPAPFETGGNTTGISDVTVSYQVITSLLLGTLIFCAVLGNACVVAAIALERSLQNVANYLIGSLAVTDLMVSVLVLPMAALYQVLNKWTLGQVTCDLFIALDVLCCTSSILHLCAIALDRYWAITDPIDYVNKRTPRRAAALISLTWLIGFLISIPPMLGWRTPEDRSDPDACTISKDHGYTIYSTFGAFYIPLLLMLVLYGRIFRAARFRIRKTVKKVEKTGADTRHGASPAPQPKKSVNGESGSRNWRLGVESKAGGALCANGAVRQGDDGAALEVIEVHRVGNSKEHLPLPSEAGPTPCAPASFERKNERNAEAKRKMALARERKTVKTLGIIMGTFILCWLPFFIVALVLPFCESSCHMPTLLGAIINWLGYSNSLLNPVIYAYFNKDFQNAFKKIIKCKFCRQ
The class given is functional, cell-based.

Assay [3] concerns the target T2, Progesterone receptor (Homo sapiens, UniProt P06401).
T2 sequence (P06401 whole entry): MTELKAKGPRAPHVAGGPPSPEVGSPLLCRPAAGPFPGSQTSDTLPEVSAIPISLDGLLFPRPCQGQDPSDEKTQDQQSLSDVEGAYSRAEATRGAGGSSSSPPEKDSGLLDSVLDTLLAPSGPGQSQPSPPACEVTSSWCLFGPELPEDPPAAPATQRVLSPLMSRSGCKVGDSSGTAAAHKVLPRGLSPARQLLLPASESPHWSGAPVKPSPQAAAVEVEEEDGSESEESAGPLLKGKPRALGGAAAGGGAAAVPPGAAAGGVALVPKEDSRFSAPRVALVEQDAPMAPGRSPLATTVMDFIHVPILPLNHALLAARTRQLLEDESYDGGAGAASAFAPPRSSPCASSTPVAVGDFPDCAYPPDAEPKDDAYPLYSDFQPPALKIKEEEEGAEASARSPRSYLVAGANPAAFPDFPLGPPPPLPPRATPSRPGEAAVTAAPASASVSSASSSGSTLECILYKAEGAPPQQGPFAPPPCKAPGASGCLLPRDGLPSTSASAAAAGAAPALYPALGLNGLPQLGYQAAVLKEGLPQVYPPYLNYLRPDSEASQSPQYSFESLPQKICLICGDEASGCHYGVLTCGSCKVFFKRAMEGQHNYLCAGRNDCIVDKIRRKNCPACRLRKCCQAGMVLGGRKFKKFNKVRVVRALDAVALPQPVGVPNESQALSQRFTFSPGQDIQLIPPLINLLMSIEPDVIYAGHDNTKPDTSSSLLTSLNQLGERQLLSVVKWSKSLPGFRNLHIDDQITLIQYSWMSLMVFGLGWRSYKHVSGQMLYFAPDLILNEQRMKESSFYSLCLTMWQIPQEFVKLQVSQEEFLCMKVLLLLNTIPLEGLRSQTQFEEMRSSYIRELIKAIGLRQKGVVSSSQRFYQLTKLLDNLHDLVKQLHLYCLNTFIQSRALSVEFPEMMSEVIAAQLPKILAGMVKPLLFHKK
Type of assay: functional.

The target of assay [4] is T3, Glucocorticoid receptor (Homo sapiens, UniProt P04150).
T3 sequence (P04150 whole entry): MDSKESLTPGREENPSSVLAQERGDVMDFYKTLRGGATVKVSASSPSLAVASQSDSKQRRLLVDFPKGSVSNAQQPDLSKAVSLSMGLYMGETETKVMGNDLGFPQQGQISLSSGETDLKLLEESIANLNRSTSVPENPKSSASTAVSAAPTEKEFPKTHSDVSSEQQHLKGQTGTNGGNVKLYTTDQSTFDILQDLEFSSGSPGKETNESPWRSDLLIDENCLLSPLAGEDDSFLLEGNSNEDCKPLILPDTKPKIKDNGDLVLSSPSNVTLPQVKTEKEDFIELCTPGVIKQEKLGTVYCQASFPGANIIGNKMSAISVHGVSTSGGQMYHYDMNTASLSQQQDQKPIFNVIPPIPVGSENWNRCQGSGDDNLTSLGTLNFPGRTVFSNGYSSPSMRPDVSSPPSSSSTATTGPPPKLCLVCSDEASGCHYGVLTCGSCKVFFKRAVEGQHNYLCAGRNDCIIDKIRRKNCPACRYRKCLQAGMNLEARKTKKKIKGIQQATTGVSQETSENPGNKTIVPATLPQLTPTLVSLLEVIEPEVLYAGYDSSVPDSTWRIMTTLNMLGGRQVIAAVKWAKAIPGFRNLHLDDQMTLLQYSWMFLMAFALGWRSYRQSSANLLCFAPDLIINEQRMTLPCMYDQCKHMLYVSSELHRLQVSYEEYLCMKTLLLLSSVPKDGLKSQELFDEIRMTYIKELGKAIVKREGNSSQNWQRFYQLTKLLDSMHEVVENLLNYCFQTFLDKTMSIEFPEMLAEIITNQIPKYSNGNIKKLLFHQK

Assay [5] addresses Glutamate receptor ionotropic, NMDA 1 (Rattus norvegicus, UniProt P35439).
Assay [6] deals with T4, Muscarinic acetylcholine receptor M1 (Homo sapiens, UniProt P11229).
T4 sequence (P11229 whole entry): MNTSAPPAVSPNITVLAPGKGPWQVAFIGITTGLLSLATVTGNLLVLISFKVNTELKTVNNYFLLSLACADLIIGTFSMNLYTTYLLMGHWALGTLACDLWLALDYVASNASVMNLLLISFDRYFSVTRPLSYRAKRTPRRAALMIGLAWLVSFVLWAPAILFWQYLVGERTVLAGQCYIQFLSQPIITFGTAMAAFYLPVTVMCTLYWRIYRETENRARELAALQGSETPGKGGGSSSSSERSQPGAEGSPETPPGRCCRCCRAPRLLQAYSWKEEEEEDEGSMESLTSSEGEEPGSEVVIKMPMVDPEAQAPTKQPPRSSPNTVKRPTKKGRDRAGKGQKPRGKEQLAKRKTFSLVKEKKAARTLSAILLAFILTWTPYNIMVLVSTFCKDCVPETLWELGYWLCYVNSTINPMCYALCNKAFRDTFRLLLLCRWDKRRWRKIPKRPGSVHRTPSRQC
The class given is functional.
Also: assay procedure not described here.

Sequence of Histamine H2 receptor (P25021 whole entry): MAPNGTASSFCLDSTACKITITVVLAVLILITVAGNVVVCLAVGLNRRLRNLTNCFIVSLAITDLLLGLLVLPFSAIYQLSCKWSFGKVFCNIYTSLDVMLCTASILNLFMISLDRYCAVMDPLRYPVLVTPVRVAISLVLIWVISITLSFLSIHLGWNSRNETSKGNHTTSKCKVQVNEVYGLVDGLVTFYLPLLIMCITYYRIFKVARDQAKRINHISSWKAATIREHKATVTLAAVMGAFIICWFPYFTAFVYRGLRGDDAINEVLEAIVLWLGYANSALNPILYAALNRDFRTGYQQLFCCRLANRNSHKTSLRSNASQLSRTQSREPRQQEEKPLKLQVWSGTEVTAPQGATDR

For `COc1ccc2c(c1)c(CC(=O)OCC(=O)O)c(C)n2C(=O)c1ccc(Cl)cc1` [ACEMETACIN], the AC50 in assay [1], in assay [2], in assay [3], in assay [4] and in assay [5] was more than 30 µM in each case.
As for `CCCC(CCC)C(=O)O[C@H]1C[C@H]2CC[C@@H](C1)[N+]2(C)C` [ANISOTROPINE], the AC50 is more than 30 µM in assay [1]; more than 30 µM in assay [2]; more than 30 µM in assay [3]; 0.17 µM in assay [6]; more than 30 µM in assay [5].
For the compound `Cc1cc2c(OCC(CNC(C)(C)C)OC(=O)c3ccccc3)cccc2[nH]1` (stereo not drawn) [BOPINDOLOL], the AC50 in assay [1], in assay [2], in assay [3], in assay [4] and in assay [5] was more than 30 µM in each case.
Take `CCCCN1CCCCC1C(=O)Nc1c(C)cccc1C` (stereo not drawn) [BUPIVACAINE]: the AC50 in assay [1], in assay [2], in assay [3] and in assay [5] was more than 30 µM in each case.
As for `CCCCCOC(=O)Nc1nc(=O)n([C@@H]2O[C@H](C)[C@@H](O)[C@H]2O)cc1F` [CAPECITABINE], the AC50 in assay [1], in assay [2], in assay [3], in assay [6] and in assay [5] was more than 30 µM in each case.
For `CC(C)(Oc1ccc(C2CC2(Cl)Cl)cc1)C(=O)O` (stereo not drawn) [CIPROFIBRATE], the AC50 in assay [1], in assay [2], in assay [3], in assay [4] and in assay [5] was more than 30 µM throughout.
For the compound `COC(=O)[C@H]1[C@@H](OC(=O)c2ccccc2)C[C@@H]2CC[C@H]1N2C` [COCAINE], the AC50 in assay [1], in assay [2], in assay [3], in assay [6] and in assay [5] was more than 30 µM throughout.
Turning to `[H]/N=C(/N)c1ccc(NCc2nc3cc(C(=O)N(CCC(=O)O)c4ccccn4)ccc3n2C)cc1` [DABIGATRAN], the AC50 in assay [1], in assay [2], in assay [3], in assay [6] and in assay [5] was more than 30 µM in each case.
On to `Cc1c(O)c(=O)ccn1C` [DEFERIPRONE], for which the AC50 in assay [1], in assay [2], in assay [3], in assay [4] and in assay [5] was more than 30 µM throughout.
Take `CC(=O)O[C@@]12CO[C@@H]1C[C@H](O)[C@@]1(C)C(=O)[C@H](O)C3=C(C)[C@@H](OC(=O)[C@H](O)[C@@H](NC(=O)OC(C)(C)C)c4ccccc4)C[C@@](O)([C@@H](OC(=O)c4ccccc4)[C@H]21)C3(C)C` [DOCETAXEL ANHYDROUS]: the AC50 in assay [1], in assay [2], in assay [3], in assay [4] and in assay [5] was more than 30 µM in each case.
Regarding `COc1c(N2CCNC(C)C2)c(F)cc2c(=O)c(C(=O)O)cn(C3CC3)c12` (stereo not drawn) [GATIFLOXACIN], the AC50 in assay [1] was more than 30 µM; in assay [2], more than 10 µM; in assay [3] it was more than 10 µM; in assay [4], more than 10 µM; in assay [5], more than 10 µM.
On to `Cc1cccc(C)c1NC(=O)C1CCCCN1C` (stereo not drawn) [MEPIVACAINE], for which the AC50 in assay [1], in assay [2], in assay [3], in assay [4] and in assay [5] was more than 30 µM throughout.
In the case of `COc1ccccc1OCC(O)COC(N)=O` (stereo not drawn) [METHOCARBAMOL], the concentration at half-maximal activity (AC50) in assay [1] was more than 10 µM; in assay [2] it was more than 10 µM; in assay [3], more than 30 µM; in assay [4], more than 30 µM; in assay [5] it was more than 10 µM.
For the compound `COc1c(C)c2c(c(O)c1C/C=C(\C)CCC(=O)OCCN1CCOCC1)C(=O)OC2` [MYCOPHENOLATE MOFETIL], the AC50 in assay [1], in assay [2], in assay [3], in assay [4] and in assay [5] was more than 30 µM each time.
Turning to `CCCOc1ccc(C(=O)OCCN(CC)CC)cc1N` [PROPARACAINE], the AC50 in assay [1], in assay [2], in assay [3], in assay [4] and in assay [5] was more than 30 µM in each case.
In the case of `Nc1nc2ccc(OC(F)(F)F)cc2s1` [RILUZOLE], the AC50 in assay [1], in assay [2], in assay [3], in assay [4] and in assay [5] was more than 30 µM each time.
On to `C#CCN(C)[C@H](C)Cc1ccccc1` [SELEGILINE], for which the AC50 in assay [1], in assay [2], in assay [3], in assay [4] and in assay [5] was more than 10 µM each time.
Consider `O=C1NCCN1CCN1CCC(c2cn(-c3ccc(F)cc3)c3ccc(Cl)cc23)CC1` [SERTINDOLE], for which the AC50 in assay [1] is more than 30 µM; in assay [3], more than 30 µM; in assay [6], 5 µM; in assay [5], more than 30 µM.
Turning to `CN[C@@H]1[C@H](O)[C@H](NC)[C@H]2O[C@@]3(O)C(=O)C[C@@H](C)O[C@H]3O[C@@H]2[C@H]1O` [SPECTINOMYCIN], the AC50 is more than 10 µM in assay [1]; more than 30 µM in assay [2]; more than 10 µM in assay [3]; more than 10 µM in assay [4]; more than 10 µM in assay [5].
With `CC[C@]1(O)C[C@@H]2CN(CCc3c([nH]c4ccccc34)[C@@](C(=O)OC)(c3cc4c(cc3OC)N(C)[C@H]3[C@@](O)(C(N)=O)[C@H](O)[C@]5(CC)C=CCN6CC[C@]43[C@@H]65)C2)C1` [VINDESINE], the AC50 in assay [1], in assay [2], in assay [3], in assay [4] and in assay [5] was more than 30 µM throughout.
For the compound `Cc1ccc(-c2nc3ccc(C)cn3c2CC(=O)N(C)C)cc1` [ZOLPIDEM], the AC50 was more than 10 µM in assay [1]; more than 30 µM in assay [2]; more than 30 µM in assay [3]; more than 30 µM in assay [4]; more than 30 µM in assay [5].

As usually defined, the AC50 is the concentration at which the activity in the assay is half-maximal.

Source of the values: ChEMBL document CHEMBL5291721, “A preclinical secondary pharmacology resource illuminates target-adverse drug reaction associations of marketed drugs” (Nat Commun, 2023).
